According to patent publication US11426402B2, “IRE1 activating compounds for use in therapy” (The Scripps Research Institute, priority 2019, dated 2022):

What was measured:
IRE1 = IRE1 (Homo sapiens, UniProt O75460); assay: IRE1 phosphorylation by Phos-tag SDS-PAGE and immunoblotting in HEK293T cells; format: cell-based; details: test compound alone, 10 μM, 4 hours
Method: FIG. 3A-FIG. 3D. […] Error bars show SEM for n=3. […] Error bars show SEM for n=3. […] Error bars show SEM for n=3.
Cell lysates were prepared as previously described in RIPA buffer (50 mM Tris, pH 7.5, 150 mM NaCl, 0.1% SDS, 1% Triton X-100, 0.5% deoxycholate and protease inhibitor cocktail (Roche). Total protein concentration in cellular lysates was normalized using the Bio-Rad protein assay. Lysates were then denatured with 1× Laemmli buffer+100 mM DTT and boiled before being separated by SDS-PAGE. Samples were transferred onto nitrocellulose membranes (Bio-Rad) for immunoblotting and blocked with 5% milk in Tris-buffered saline, 0.5% Tween-20 (TBST) following incubation overnight at 4° C. with primary antibodies. Membranes were washed in TBST, incubated with IR-Dye conjugated secondary antibodies and analyzed using Odyssey Infrared Imaging System (LI-COR Biosciences). Quantification was carried out with LI-COR Image Studio software.
Compounds that activate IRE1 through binding the IRE1 kinase active site and inhibiting IRE1 autophosphorylation can elicit off-target activity likely associated with binding to other protein kinases.^20, 35, 36 Thus, the purpose of this example was to define the dependence of the present compounds on IRE1 kinase activity. HEK293T cells were treated with compound 198, 474, or 970 in the absence or presence of Tg, and IRE1 phosphorylation was monitored by using Phos-tag SDS-PAGE and immunoblotting. As a control, cells were treated with APY29—an IRE1 kinase site inhibitor that allosterically activates the IRE1 RNAse^20 in the absence or presence of Tg.

[1] = test system: IRE1/XBP1s signaling pathway; assay: XBP1-RLuc splicing reporter in HEK293T-REx cells; format: cell-based; details: HEK293-T-REx; HEK293T-REx XBP1-RLuc cells, 18 hr; read-out: EC50 of XBP1-RLuc activation
Method: FIG. 2A and FIG. 2B. Activation of RLuc luminescence in HEK293T-Rex cells stably expressing XBP1s-RLuc treated with 10 μM IRE1 activators in the presence or absence of IRE1 inhibitor 4 μ8c (32 μM) for 18 hr. Luminescence is shown as % signal relative to Tg treatment (500 nM; 18 hr). Error bars represent standard deviation for n=3 replicates (FIG. 2A), Activation of RLuc luminescence in HEK293T-Rex cells stably expressing XBP1s-RLuc treated with the indicated concentrations of IRE1 activator compounds for 18 hr. Luminescence is shown as % signal relative to Tg treatment (500 nM; 18 hr) Error bars represent standard deviation for n=3 replicates (FIG. 2B).
HEK293T-Rex cells incorporating either the XBP1s-Rluc or ERSE-FLuc reporters were collected by trypsinization and resuspended at a density of 500,000 cells per mL. The assay was started by dispensing 5 μL of cell suspension into each well of white, solid-bottom 1536-well plates using a flying reagent dispenser (FRD) and placed into an online incubator for 3 hr. Cells were then treated with 34 nL/well of either test compounds to give final concentrations of 5.17 μM, DMSO (low control, final concentration 0.68%, 0% activation) or 37 μM of Delta-7 thapsigargin (high control, final concentration 500 nM, 100% activation). Plates were incubated for 18 hr at 37° C., removed from the incubator and equilibrated to room temperature for 10 min. Luciferase activity was detected by addition of 5 μL of ONE-Glo reagent (Promega) to each well. After a 10 min incubation time, light emission was measured with the ViewLux reader (PerkinElmer).
The percent activation of each test compound was calculated as follows: % Activation=100*(Test Compound-Median Low Control)/(Median High Control Median Low Control). Primary screening of the 646,275 compound library at Scripps Florida yielded 10,114 hits for XBP1s Renilla Luciferase activity at ≥13.83% activation by thapsigargin. Compounds that hit in more than 7 screens (promiscuity score) were eliminated, as well as those that elicited HSP70 activation. The top 6,391 remaining compounds (activation≥16.36%) were moved forward to triplicate confirmation screening and HEK TREX CTG cytotoxicity counterscreening. Duplicates were removed from the resulting list, and the top 638 activating compounds (≥15.92%) were moved forward for triplicate titration screening and HEK TREX CTG titration counterscreening.
A HEK293^T-REx cell line that stably expresses a XBP1-Renilla luciferase (XBP1-RLuc) splicing reporter was used to identify compounds that activated the IRE1/XBP1s signaling pathway^37. Activated IRE1selectively splices mRNA encoded by this reporter, resulting in a frame-shift that allows expression of the active Renilla luciferase enzyme^37. […]

ER proteostasis factors = assay: RNAseq expression of 124 proteostasis factors; format: cell-based, human
Method: Cells were lysed and total RNA collected using the RNeasy mini kit, according to manufacturer's instructions (Qiagen). Conventional RNA-seq was conducted via BGI Americas on the BGI Proprietary platform, providing single-end 50 bp reads at 20 million reads per sample. Alignment of sequencing data was done using DNAstar Lasergene SeqManPro to the GRCh37. p 13 human genome reference assembly, and assembly data were imported into ArrayStar 12.2 with QSeq (DNAStar Inc.) to quantify the gene expression levels and normalization to reads per kilobase per million (RPKM). Differential expression analysis and statistical significance calculations between different conditions was assessed using “DESeq” in R, compared to vehicle-treated cells, using a standard negative binomial fit of the RPKM data to generate Fold Change quantifications.
One of the mechanisms by which IRE1/XBP1s activation is protective is through the targeted transcriptional remodeling of ER proteostasis pathways. Because it was observed that compounds such as 474 and 970 selectively activate IRE1/XBP1s signaling, it was desired to confirm that these compounds similarly promote targeted ER proteostasis network remodeling. […]

Chain of IRE1 (O75460 19-977): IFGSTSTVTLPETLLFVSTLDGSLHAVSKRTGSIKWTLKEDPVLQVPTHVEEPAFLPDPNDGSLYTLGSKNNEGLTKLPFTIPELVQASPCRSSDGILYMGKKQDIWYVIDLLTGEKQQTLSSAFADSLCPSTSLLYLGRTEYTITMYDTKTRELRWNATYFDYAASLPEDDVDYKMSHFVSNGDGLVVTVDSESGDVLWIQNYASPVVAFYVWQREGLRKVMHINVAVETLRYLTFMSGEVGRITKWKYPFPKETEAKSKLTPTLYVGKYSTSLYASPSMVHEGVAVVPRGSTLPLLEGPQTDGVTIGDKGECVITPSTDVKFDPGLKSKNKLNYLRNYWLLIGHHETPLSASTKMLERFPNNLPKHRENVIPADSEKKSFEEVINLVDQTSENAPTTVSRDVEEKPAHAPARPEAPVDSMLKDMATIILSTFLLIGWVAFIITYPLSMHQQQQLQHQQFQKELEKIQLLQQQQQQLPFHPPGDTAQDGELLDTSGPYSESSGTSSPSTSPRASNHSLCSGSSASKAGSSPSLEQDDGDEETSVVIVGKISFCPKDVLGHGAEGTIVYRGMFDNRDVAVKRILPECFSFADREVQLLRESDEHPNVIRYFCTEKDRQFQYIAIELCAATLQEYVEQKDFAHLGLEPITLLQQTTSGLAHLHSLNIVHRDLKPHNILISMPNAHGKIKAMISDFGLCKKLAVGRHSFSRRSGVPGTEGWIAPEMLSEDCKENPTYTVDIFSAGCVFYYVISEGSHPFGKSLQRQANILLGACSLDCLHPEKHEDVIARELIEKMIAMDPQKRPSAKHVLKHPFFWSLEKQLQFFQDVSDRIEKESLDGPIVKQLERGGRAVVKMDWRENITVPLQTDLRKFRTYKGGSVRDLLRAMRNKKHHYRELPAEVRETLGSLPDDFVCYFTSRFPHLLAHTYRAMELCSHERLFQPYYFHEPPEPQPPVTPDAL

## CCOC(CNC(=O)C1CCCN(Cc2nc(-c3ccc(Cl)cc3)oc2C)C1)OCC (centres unmarked) [Compound 198]
IRE1
  phosphorylated IRE1: increased phosphorylated IRE1
[1]
  EC50: < 3000 nM

## Cc1ccc(OCCN(C)C(=O)Cn2cc(NC(=O)CCOc3ccccc3)cn2)cc1 [Compound 474]
IRE1
  phosphorylated IRE1: increased phosphorylated IRE1
ER proteostasis factors
  remodeling of ER proteostasis factors relative to other compartments: selective remodeling
[1]
  EC50: < 3000 nM

## O=C(CN(Cc1ccc(Cl)cc1)S(=O)(=O)c1cccnc1)N1CCc2ccccc21 [Compound 970]
IRE1
  phosphorylated IRE1: increased phosphorylated IRE1
ER proteostasis factors
  remodeling of ER proteostasis factors relative to other compartments: selective remodeling
[1]
  EC50: < 3000 nM
